# Columns and labels:
# [1] = Metabolic stability in human liver microsomes assessed as compound remaining at 1 uM after 30 mins in presence of NADPH regeneration system by LC-MS/MS analysis; format: ADME, Microsome; conditions: read-out: Stability
# [2] = Metabolic stability in mouse liver microsomes assessed as compound remaining at 1 uM after 30 mins in presence of NADPH regeneration system by LC-MS/MS analysis; format: ADME, Microsome; conditions: read-out: Stability
# CYP2C9 = CYP2C9 (Homo sapiens, UniProt P11712); assay: Inhibition of CYP2C9 in human liver microsomes assessed as reduction in tolbutamide 4-hydroxylase activity at 10 uM preincubated for 5 mins followed by NADPH addition and measured after 15 mins by LC-MS/MS analysis relative to control; format: ADME; conditions: probe tolbutamide (4-hydroxylation)
# CYP2C9, sequence (P11712 whole entry): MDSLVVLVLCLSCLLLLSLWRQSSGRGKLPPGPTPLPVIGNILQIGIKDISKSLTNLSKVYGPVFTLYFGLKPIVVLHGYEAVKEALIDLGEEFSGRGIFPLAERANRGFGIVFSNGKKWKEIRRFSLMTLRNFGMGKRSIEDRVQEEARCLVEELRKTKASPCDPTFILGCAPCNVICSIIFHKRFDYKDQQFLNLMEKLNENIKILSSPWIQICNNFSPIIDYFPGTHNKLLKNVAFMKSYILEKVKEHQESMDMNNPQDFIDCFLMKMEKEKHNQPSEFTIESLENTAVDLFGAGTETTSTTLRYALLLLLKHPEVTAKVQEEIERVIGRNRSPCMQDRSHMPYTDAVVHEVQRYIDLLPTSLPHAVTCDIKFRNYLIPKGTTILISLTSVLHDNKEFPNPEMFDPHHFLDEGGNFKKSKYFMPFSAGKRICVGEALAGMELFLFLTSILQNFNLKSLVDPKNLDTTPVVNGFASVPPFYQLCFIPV
# CYP2C19 = CYP2C19 (Homo sapiens, UniProt P33261); assay: Inhibition of CYP2C19 in human liver microsomes assessed as reduction in S-mephenytoin 4-hydroxylase activity at 10 uM preincubated for 5 mins followed by NADPH addition and measured after 15 mins by LC-MS/MS analysis relative to control; format: ADME; conditions: probe S-mephenytoin (4-hydroxylation)
# CYP2C19, sequence (P33261 whole entry): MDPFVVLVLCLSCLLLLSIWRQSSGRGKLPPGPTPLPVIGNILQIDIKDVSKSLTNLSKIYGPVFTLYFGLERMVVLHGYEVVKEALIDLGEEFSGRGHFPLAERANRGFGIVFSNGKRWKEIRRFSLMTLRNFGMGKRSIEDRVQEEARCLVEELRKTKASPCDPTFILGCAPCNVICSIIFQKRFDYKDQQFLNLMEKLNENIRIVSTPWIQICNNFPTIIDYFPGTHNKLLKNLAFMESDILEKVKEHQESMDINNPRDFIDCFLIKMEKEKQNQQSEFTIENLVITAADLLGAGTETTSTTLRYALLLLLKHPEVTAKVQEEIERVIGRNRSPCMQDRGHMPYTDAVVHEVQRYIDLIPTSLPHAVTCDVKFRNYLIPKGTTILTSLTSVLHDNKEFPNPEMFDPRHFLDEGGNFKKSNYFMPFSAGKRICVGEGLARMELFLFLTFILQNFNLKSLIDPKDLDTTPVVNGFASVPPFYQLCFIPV
# CYP1A2 = biological target: T1, CYP1A2 (Homo sapiens, UniProt P05177); assay: Inhibition of CYP1A2 in human liver microsomes assessed as reduction in phenacetin O-deethylase activity at 10 uM preincubated for 5 mins followed by NADPH addition and measured after 15 mins by LC-MS/MS analysis relative to control; format: ADME; conditions: probe phenacetin (O-deethylation)
# T1 sequence (P05177 whole entry): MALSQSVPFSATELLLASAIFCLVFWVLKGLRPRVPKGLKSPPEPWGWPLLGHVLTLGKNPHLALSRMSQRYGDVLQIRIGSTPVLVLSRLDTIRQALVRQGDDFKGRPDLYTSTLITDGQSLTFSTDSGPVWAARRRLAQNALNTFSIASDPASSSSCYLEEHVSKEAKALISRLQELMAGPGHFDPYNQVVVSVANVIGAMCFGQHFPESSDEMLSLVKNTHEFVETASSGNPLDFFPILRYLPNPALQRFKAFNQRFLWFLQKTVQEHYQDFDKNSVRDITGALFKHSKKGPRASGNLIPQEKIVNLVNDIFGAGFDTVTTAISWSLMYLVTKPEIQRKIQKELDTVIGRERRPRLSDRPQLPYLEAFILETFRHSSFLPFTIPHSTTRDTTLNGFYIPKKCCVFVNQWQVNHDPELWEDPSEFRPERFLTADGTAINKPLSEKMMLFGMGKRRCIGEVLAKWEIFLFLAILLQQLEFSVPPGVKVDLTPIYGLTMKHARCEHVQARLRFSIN
# Estrogen receptor = biological target: T2, Estrogen receptor (Homo sapiens, UniProt P03372)
# T2 sequence (P03372 whole entry): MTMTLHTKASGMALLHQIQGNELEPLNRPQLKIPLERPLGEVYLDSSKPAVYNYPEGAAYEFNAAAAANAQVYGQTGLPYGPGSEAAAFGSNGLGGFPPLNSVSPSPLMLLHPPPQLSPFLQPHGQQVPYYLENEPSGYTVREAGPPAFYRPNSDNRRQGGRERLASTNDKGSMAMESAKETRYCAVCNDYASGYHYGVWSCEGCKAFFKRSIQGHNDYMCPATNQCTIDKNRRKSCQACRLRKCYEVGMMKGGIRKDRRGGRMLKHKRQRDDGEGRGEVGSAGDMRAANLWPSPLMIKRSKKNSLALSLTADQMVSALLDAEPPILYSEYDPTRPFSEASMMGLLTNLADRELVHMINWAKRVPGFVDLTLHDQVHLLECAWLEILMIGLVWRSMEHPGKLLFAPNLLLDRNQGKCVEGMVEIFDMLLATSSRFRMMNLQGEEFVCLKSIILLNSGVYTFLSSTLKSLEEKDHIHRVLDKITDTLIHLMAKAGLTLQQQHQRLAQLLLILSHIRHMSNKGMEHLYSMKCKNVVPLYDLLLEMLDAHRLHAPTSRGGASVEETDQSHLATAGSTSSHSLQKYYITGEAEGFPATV
# [3] = Metabolic stability in dog liver microsomes assessed as compound remaining at 1 uM after 30 mins in presence of NADPH regeneration system by LC-MS/MS analysis; format: ADME, Canis lupus familiaris, Microsome; conditions: read-out: Stability
# [4] = biological target: T3, Steroid hormone receptor ERR1 (Homo sapiens, UniProt P11474)
# T3 sequence (P11474 whole entry): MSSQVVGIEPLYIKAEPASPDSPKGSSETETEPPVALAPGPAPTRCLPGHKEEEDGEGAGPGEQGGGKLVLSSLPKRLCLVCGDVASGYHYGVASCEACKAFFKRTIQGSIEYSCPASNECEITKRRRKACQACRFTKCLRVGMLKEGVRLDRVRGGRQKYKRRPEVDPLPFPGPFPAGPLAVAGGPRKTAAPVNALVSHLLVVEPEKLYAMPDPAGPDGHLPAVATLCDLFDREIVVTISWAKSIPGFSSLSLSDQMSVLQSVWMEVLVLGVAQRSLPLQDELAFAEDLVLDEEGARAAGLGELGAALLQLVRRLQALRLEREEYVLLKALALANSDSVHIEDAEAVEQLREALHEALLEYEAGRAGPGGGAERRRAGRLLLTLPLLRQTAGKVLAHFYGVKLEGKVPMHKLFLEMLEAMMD
# [5] = biological target: T4, Steroid hormone receptor ERR2 (Homo sapiens, UniProt O95718); assay: Binding affinity to ERRbeta (unknown origin) using fluorescein-conjugated coactivator PGC-1alpha incubated for 1 hr by TR-FRET assay
# T4 sequence (O95718 whole entry): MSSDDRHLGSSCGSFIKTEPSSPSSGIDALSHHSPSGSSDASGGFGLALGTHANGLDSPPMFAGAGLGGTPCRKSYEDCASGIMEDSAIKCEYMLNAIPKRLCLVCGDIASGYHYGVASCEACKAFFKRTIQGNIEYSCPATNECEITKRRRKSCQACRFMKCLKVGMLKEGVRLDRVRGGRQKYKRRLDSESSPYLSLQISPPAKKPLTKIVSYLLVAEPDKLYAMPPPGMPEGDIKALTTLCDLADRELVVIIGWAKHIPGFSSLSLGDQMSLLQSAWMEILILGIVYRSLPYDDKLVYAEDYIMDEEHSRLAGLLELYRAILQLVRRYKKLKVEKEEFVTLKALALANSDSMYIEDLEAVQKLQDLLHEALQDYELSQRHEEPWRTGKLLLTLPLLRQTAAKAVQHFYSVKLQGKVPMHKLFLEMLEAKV
# CYP3A4 = CYP3A4 (Homo sapiens, UniProt P08684); assay: Inhibition of CYP3A4 in human liver microsomes assessed as reduction in midazolam 1-hydroxylase activity at 10 uM preincubated for 5 mins followed by NADPH addition and measured after 15 mins by LC-MS/MS analysis relative to control; format: ADME; conditions: probe midazolam (1-hydroxylation)
# CYP3A4, sequence (P08684 whole entry): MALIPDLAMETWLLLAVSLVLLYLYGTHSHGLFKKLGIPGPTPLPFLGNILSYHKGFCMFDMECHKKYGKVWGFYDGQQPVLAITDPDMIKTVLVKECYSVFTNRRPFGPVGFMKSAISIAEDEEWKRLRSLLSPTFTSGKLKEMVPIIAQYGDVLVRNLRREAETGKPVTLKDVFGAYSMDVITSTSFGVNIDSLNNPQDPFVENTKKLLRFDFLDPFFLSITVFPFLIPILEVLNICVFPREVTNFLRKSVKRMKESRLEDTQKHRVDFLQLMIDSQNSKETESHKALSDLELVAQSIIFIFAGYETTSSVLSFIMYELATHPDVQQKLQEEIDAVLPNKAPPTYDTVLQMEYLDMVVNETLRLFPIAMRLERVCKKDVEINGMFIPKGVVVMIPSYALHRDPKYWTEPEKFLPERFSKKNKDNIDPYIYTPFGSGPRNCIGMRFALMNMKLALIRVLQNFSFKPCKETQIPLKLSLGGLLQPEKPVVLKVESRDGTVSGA
# [6] = Metabolic stability in rat liver microsomes assessed as compound remaining at 1 uM after 30 mins in presence of NADPH regeneration system by LC-MS/MS analysis; format: ADME, Microsome; conditions: read-out: Stability
# [7] = Effective permeability of the compound at 10 uM after 5 hrs by PAMPA; format: ADME; conditions: read-out: Peff
# CYP2D6 = CYP2D6 (Homo sapiens, UniProt P10635); assay: Inhibition of CYP2D6 in human liver microsomes assessed as reduction in dextromethorphan O-demethylase activity at 10 uM preincubated for 5 mins followed by NADPH addition and measured after 15 mins by LC-MS/MS analysis relative to control; format: ADME; conditions: probe dextromethorphan (O-demethylation)
# CYP2D6, sequence (P10635 whole entry): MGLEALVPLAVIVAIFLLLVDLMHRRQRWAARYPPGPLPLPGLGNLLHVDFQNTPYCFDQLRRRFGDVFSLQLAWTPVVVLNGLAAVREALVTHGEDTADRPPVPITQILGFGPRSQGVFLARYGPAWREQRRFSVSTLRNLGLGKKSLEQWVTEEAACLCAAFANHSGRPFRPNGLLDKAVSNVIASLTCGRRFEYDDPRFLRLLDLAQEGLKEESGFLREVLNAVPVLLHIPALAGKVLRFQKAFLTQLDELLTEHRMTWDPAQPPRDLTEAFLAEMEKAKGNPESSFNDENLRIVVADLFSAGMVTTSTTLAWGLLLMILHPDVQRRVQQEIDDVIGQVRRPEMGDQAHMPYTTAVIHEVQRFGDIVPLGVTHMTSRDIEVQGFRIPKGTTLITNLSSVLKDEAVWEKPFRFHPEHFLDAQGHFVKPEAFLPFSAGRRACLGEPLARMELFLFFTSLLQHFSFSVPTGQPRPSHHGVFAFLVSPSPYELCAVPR
# [8] = biological target: T5, Estrogen-related receptor gamma (Homo sapiens, UniProt P62508)
# T5 sequence (P62508 whole entry): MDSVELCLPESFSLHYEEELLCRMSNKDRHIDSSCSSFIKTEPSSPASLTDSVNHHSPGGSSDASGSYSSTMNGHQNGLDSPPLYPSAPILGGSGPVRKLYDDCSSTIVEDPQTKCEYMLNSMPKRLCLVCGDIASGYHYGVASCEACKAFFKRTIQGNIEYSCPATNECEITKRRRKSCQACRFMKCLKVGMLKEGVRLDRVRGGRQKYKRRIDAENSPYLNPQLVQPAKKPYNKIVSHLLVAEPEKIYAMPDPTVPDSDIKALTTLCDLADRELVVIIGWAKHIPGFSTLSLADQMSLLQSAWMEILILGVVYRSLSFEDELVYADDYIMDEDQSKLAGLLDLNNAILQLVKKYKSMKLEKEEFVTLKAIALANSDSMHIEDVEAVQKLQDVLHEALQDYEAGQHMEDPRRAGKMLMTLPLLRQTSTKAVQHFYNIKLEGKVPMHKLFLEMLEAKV
SMILES,IC50 (Estrogen receptor) [nM],IC50 [4] [nM],IC50 [8] [nM],other results
Cc1ccc(/C(=C(\CCCO)c2ccccc2)c2ccc(N3CCNCC3)cc2)cc1.Cl.Cl,> 10000,> 10000,,"remaining at 0.5 h, 1 µM [1]: 44%; remaining at 0.5 h, 1 µM [2]: 28.8%; inhibition at 0.25 h, 10 µM (CYP2C9): 39.3%; inhibition at 0.25 h, 10 µM (CYP2C19): 57.7%; inhibition at 0.25 h, 10 µM (CYP1A2): 28.7%; remaining at 0.5 h, 1 µM [3]: 58%; IC50 [5]: 2100 nM; inhibition at 0.25 h, 10 µM (CYP3A4): 59.9%; remaining at 0.5 h, 1 µM [6]: 71.5%; Papp at 5 h, 10 µM [7]: 3.61 ×10⁻⁶ cm/s; inhibition at 0.25 h, 10 µM (CYP2D6): 38.5%"
OCCC/C(=C(\c1ccc(O)cc1)c1ccc(N2CCN(C3CCCCC3)CC2)cc1)c1ccccc1,2120,9700,99,
CN1CCN(c2ccc(/C(=C(/CCCO)c3ccccc3)c3ccc(N)cc3)cc2)CC1,,,140,
CC(C)N1CCN(c2ccc(/C(=C(/CCCO)c3ccccc3)c3ccc(NS(=O)(=O)C4CC4)cc3)cc2)CC1,,,3630,
OCCC/C(=C(\c1ccc(O)cc1)c1ccc(N2CCN(C3CCC3)CC2)cc1)c1ccccc1,1660,> 10000,53,
CC(C)N1CCN(c2ccc(/C(=C(/CCCO)c3ccccc3)c3ccc(NC(=N)N)cc3)cc2)CC1,,,> 10000,
N=C(N)N1CCN(c2ccc(/C(=C(/CCCO)c3ccccc3)c3ccc(O)cc3)cc2)CC1,,,511,
CC(C)N1CCN(c2ccc(/C(=C(/CCCO)c3ccccc3)c3ccc(OS(=O)(=O)C4CC4)cc3)cc2)CC1,,,1360,
CC(C)N1CCN(c2cccc(/C(=C(/CCCO)c3ccccc3)c3ccc(O)cc3)c2)CC1,,,> 10000,
CC(C)N1CCN(c2ccc(/C(=C(/CCCO)c3ccccc3)c3ccc(OS(=O)(=O)C(F)(F)F)cc3)cc2)CC1,,,3020,
CN1CCN(c2ccc(/C(=C(/CCCOC(=O)C(C)(C)C)c3ccccc3)c3ccc(O)cc3)cc2)CC1,,,> 10000,
OCCC/C(=C(\c1ccc(O)cc1)c1ccc(N2CCNCC2)cc1)c1ccccc1,2500,> 10000,,IC50 [5]: 4540 nM
CC(=O)Nc1ccc(/C(=C(\CCCO)c2ccccc2)c2ccc(N3CCN(C(C)C)CC3)cc2)cc1,,,4330,
